Measured values published in patent publication US11746103B2, “ALK-5 inhibitors and uses thereof” (Sumitomo Pharma Oncology, Inc., priority 2020, dated 2023).

Tests used:
[1] = molecular target: ALK-5 (Homo sapiens (Human), UniProt P36897); test: LanthaScreen Eu Kinase Binding Assay, ALK-5; settings: for IC50: read-out: Kinase Inhibition: ALK5 IC50
How it was run: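 TR-FRET binding assay: compound displaces an ATP-site-directed Alexa Fluor tracer from kinase detected by Eu-labelled anti-tag antibody, lowering FRET. 10-point, 3-fold serial dilutions, 60 min incubation at room temperature, read without development step. Dose-response curves fitted.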

[2] = system: phospho-SMAD2 (Ser 465/467) in A549 xenograft; test: A549 xenograft study, tumor phospho SMAD2; format: in vivo, mouse; settings: for phospho SMAD2 levels in tumor (normalized to GAPDH): 10, 50, 75, 100 mg/Kg; for inhibition at 10 mg/kg / inhibition at 50 mg/kg / inhibition at 75 mg/kg / inhibition at 100 mg/kg: Mus musculus, A549, oral gavage, 3 hours after administration, read-out: Percent of p-SMAD2 inhibition compared to vehicle control
Text: To test compounds for in vivo on-target activity (ALK5/TGF-βR1 inhibition), a study was completed using an A549 murine xenograft model. This model was utilized since an ALK5 inhibitor is expected to reduce the amount of the key TGF-β signaling molecule phosphoSMAD2 in the A549 xenograft cells. The TGF-β mediated phosphorylation in A549 cells takes place at amino acid residue four hundred and sixty-five and four hundred and sixty-seven (both are serine residues).
Eight-week old, female athymic nude mice (Charles River) were injected with approximately four million A549 cells (ATCC, CCL-185). The cells employed were harvested and resuspended in plain RPMI media (no phenol red added) and matrigel (Fisher Scientific) at a one to one ratio. Injection comprised a two-hundred microliter sample injected into the right hind flank of each mouse. Resulting tumors were measured every three days by caliper and as tumors reached an average of one hundred and thirty millimeters cubed, mice were randomized in groups of three.
All compounds were resuspended in 1-Methyl-2-pyrrolidinone (10%) plus 20% Solutol in water (90%). Galunisertib was included as a positive control and given at seventy-five milligram per kilogram to three mice. The drug suspensions were sonicated for fifteen minutes to generate a fine particle suspension before being administered to a subject. Mice were dosed (per oral gavage) at dose levels of one hundred mg/Kg, seventy-five mg/Kg, fifty mg/Kg and ten mg/Kg with three mice in each group. A vehicle control group with three mice was used to establish the baseline level of phospho SMAD2 in the tumor xenograft. Three hours after drug administration, tumors were harvested and stored at negative eighty degrees Celsius until further processing. The phospho SMAD2 levels were determined using the BioPlex Pro anti phospho-SMAD2 (Ser 465/467) beads from Biorad and this signal was normalized using GAPDH levels from each sample (Milliplex MAP GAPDH beads, Sigma/Millipore). Tumors were processed according to kit instructions and beads analyzed using the MagPix instrument by Luminex.

[3] = Longitudinal PK/PD analysis in A549 xenograft mouse model (plasma and tumor PK); format: in vivo; settings: 75 mg/kg single oral dose
Method: In this study, p-SMAD2 (Ser465/Ser467) and a housekeeping gene (GAPDH) were measured at six timepoints from zero (established using vehicle-treated animals) up to twenty-four hours post dose for a single drug dose of seventy-five milligrams per kilogram per subject (three subjects per dosing group).
For this study, xenografts were prepared and implanted in mice as follows. At five weeks of age, female athymic nude mice (purchased from Charles River) were injected with approximately 3.2 million A549 cells (ATCC, CCL-185). Cells were harvested and resuspended in plain RPMI media (no phenol red added) and Matrigel (Corning 356237) at a one-to-one ratio, and two hundred-microliters of the cell suspension were injected into the right hind flank of each mouse. Tumors were measured every three days by caliper, and as tumors reached an average of ninety millimeters cubed, mice were randomized in groups of three. Each of the test compounds (Ex-10 and Ex-11) was resuspended in 1-methyl-2-pyrrolidinone (Sigma, 494496) (10%) plus 20% Solutol (Sigma 42966) in water (90%). The drug suspensions were sonicated for fifteen minutes to generate a fine particle suspension before being given to the test subjects. Subjects were dosed (per oral gavage) with the suspension. A vehicle control group with three mice was used to establish the baseline and timepoint zero of phospho-SMAD-2 in the tumor xenograft. The test compounds were administered to the respective subject groups at seventy-five milligrams per kilogram. Samples were obtained post administration of test compounds at 20 minutes, one hour, two hours, four hours, and twenty-four hours. Tumors were harvested, snap frozen and stored at negative eighty degrees Celsius until further processing. Plasma was collected from all animals by collecting whole blood via cardiac puncture, followed by centrifugation in tubes containing EDTA (BD, microtainer tubes, 365974). A group of three mice receiving vehicle only served as the zero timepoint for both drug groups. The phospho-SMAD-2 levels were determined using the Bio-Plex Pro™ Phospho-Smad2 (Ser465/Ser467) Set (BioRad 171V50019M). The phospho-SMAD-2 levels were normalized to GAPDH (MILLIPLEX MAP GAPDH Total Magnetic Bead MAPmate™, Millipore 46-667MAG) levels from each sample. All analytes were analyzed in a multiplex fashion with the Bio-Plex Pro Cell Signaling Reagent Kit (BioRad 171304006M). Frozen tumor samples (fifteen to thirty milligrams) were lysed in 100 μl lysis buffer, processed in a bead mill tube, and centrifuged. The resulting lysate was used at 1:50 dilution for the assay according to the manufacturer's instructions. Bead suspension was analyzed using the Luminex system (MAGPIX).

[4] = system: TGF-β1 mediated alpha-SMA expression in primary human bronchial fibroblasts derived from IPF patients; test: Fibroblast to Myofibroblast Transformation (FMT) assay; settings: for max PIN of TGF-β1 mediated alpha-SMA expression: in at least two donors
Method: To test the ability of compounds of the invention to inhibit the TGF-β1 dependent transition of fibroblasts to myofibroblasts in a relevant disease model of IPF, a study was carried out using an FMT assay employing lung fibroblasts from IPF patients. In this model the transition of fibroblasts to myofibroblasts is determined by the expression of the biomarker alpha smooth muscle actin (SMA).
Each drug concentration condition was evaluated in biological duplicates. One hour after compound addition, cells were stimulated with 1.25 ng/ml of TGF-01 and cultured for 72 hours thereafter. At the end of 72 hours cells were fixed using formaldehyde. The results were generated using high content imaging after staining cells using the nuclear stain DAPI as well as evaluation of the expression of alpha SMA. […] As a negative control 0.1% DMSO was used matching the DMSO concentration in treated wells.

ALK-5, sequence (P36897 34-503): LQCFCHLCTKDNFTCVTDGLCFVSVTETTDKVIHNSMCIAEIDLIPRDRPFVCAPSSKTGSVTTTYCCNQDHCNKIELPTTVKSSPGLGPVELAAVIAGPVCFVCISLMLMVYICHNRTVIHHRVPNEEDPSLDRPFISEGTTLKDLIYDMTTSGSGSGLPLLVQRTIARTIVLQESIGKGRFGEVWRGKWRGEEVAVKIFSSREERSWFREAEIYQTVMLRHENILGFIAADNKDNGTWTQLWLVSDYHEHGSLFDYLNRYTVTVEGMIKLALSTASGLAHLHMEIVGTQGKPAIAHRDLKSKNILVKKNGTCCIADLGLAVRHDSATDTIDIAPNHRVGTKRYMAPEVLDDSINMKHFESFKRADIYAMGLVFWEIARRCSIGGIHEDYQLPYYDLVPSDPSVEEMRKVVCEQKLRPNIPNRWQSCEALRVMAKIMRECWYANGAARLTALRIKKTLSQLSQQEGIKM

SMILES	Kinase Selectivity: ALK2 IC50/ ALK5 IC50 [1]	IC50 [1] [nM]	phospho SMAD2 levels in tumor (normalized to GAPDH) [2]	inhibition at 10 mg/kg [2] [%]	inhibition at 50 mg/kg [2] [%]	inhibition at 75 mg/kg ([2]; 75 mg/Kg) [%]	inhibition at 100 mg/kg [2] [%]	drug in plasma and tumor at 24 hours post drug administration [3]	LogM IC50 αSMA ([4]; donor IPF05) [LogM]	Max PIN (%) ([4]; donor IPF05)	potentially toxic (>25% loss of nuclei) ([4]; donor IPF05)	LogM IC50 αSMA ([4]; donor IPF06) [LogM]	Max PIN (%) ([4]; donor IPF06)	LogM IC50 αSMA ([4]; donor IPF08) [LogM]	Max PIN (%) ([4]; donor IPF08)	potentially toxic (>25% loss of nuclei) ([4]; donor IPF08)	max PIN of TGF-β1 mediated alpha-SMA expression [4]	further results
Cc1cccc2c(Nc3ccnc(Nc4ccc(N5CCOCC5)cc4)n3)cnnc12 [EX-10, N4-(8-methylcinnolin-4-yl)-N2-(4-morpholino-phenyl)-pyrimidine-2,4-diamine]	(++) (10<ALK2/ALK5<100=[++])	< 10	reduced the phopho SMAD2 levels (p-SMAD2) in a dose dependent fashion	33.5	78.3	74.8	84.8	cleared out of the system completely	−6.8	106.4	>−5.5	−6.7	110.3	−7.0	100.3	>−5.5	greater than 75	drug concentration in plasma and tumor over time [3]: spiked 20 minutes to 1-hour post drug administration and stayed high up to 4 hours post drug administration
Cc1cccc2c(Nc3ccnc(Nc4cccc(N5CCOCC5)c4)n3)cnnc12 [EX-11, N4-(8-methylcinnolin-4-yl)-N2-(3-morpholinophenyl)pyrimidine-2,4-diamine]	(++) (10<ALK2/ALK5<100=[++])	< 10	reduced the phopho SMAD2 levels (p-SMAD2) in a dose dependent fashion	32.6	87.6	92.5	90.1	cleared out of the system	−7.2	107.2	>−6.0	−7.0	112.9	−7.3	103.7	>−6.0	greater than 75	observed level of p-SMAD2 as percent of vehicle-only group ([2]; 75 mg/Kg): 7.5%; time of maximum drug concentration in plasma and tumor [3]: around 4 hours; potentially toxic (>25% loss of nuclei) ([4]; donor IPF06): >−5.5; inhibition of TGF-β-mediated alpha-SMA expression ([4]; in all three donors): full concentration-dependent inhibition
